Data taken from US20250064762A1, “A SUBSTITUTED AROMATIC DICARBONIC ACID AMIDE AS AN INHIBITOR OF THE FERROPTOSIS SUPPRESSOR PROTEIN-1 (FSP1)” (JULIUS-MAXIMILIANS-UNIVERSITÄT WÜRZBURG, priority 2021, published 2025).

Assays:
[1] = test system: mouse embryonic fibroblasts (MEFs), Hepa 1-6 mouse hepatocellular carcinoma cells; experiment: Concentration-dependent toxicity of FIN56 with CPBA or iFSP1 in mouse cells; format: cell-based; conditions: for sensitization to FIN56-induced ferroptosis in mouse cells: MEFs or Hepa 1-6 cells
Protocol: Cells were seeded onto 96-well plates (5,000 cells per well), and treated with serial dilutions of ferroptosis-inducing compounds (erastin, BSO, RSL3, FIN56) or cytotoxic drugs (staurosporine, nocodazole, tunicamycin, paclitaxel, etoposide, menadione, rotenone, FCCP, carboplatin) in the absence or presence of CPBA or iFSP1 (100 μM or 10 μM, respectively; unless stated otherwise) or the DMSO solvent control. Ferroptotic cell death was evaluated by incubating in the absence or presence of liproxstatin-1 (100 nM), ferrostatin-1 (200 nM), or deferoxamine (100 μM). Cell viability was assessed after 16 h using AquaBluer as an indicator of viable cells according to the manufacturer's recommendations (MultiTarget Pharmaceuticals, LLC). Fluorescence (excitation, 540 nm; emission, 590 nm) was analyzed on a Clariostar microplater reader.
In order to test concentration-dependent toxicity of treatment with FIN56 and either CPBA or iFSP1, we treated mouse embryonic fibroblasts (MEFs, see FIG. 21A), or Hepa 1-6 mouse hepatocellular carcinoma cells (see FIG. 21B) with DMSO solvent control, or with the indicated concentrations of CPBA or iFSP1. Ferroptotic cell death was assessed by incubation in the absence or presence of liproxstatin-1 (lip-1; A, 500 nM; B, 250 nM).

human FSP1 = molecular target: T1, human FSP1 (Homo sapiens, UniProt Q9BRQ8); experiment: Biolayer interferometry binding kinetics, human FSP1; conditions: 25° C.
T1 construct: His6 (N, cleaved yes); made in house; host or cells: Escherichia coli BL21 pG-Tf2
T1 sequence (Q9BRQ8 1-373): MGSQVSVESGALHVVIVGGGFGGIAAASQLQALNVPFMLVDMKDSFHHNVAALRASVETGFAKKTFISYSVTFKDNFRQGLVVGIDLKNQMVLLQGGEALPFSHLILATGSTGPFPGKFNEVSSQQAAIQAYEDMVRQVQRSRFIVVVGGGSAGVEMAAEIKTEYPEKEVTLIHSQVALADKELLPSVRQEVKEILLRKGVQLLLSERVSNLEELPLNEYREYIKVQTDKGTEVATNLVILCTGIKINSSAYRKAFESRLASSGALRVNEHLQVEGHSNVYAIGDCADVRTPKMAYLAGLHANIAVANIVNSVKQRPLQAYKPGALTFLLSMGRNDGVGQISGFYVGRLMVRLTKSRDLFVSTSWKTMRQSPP
Protocol: Purified, AviTag-fused mFSP1 or hFSP1 were enzymatically biotinylated with the E. coli biotin ligase BirA. To this end, FSP1 proteins (48 μM) were incubated with purified GST-BirA in the presence of ATP and D-biotin (Sigma Aldrich) as described (Fairhead et al., 2015). GST-BirA was removed using glutathione Sepharose 4 Fast Flow (GE Healthcare), and samples were dialyzed against TNM (pH 7.4) to remove free biotin.
Biotinylated, AviTag-fused mFSP1 or hFSP1 (1.5 μM in TNM buffer supplemented with 0.005% (v/v) Tween-20) was immobilized on streptavidin-coated biosensors (Super Streptavidin/SSA Dip and Read Biosensors, ForteBio). The sensors were then quenched with 27 μM biocytin (Sigma Aldrich), and binding kinetics were measured at 25° C. on a ForteBio Octet Red 96e instrument. Dissociation was initiated after 90 s. Reference sensors were quenched with 27 μM biocytin. Raw data was double referenced, and a global exponential regression 1:1 model was applied for kinetic analyses. Data are mean values±S.D. of at least n=4 measurements. KD, dissociation constant; Kon, on-rate constant; Koff, off-rate constant.
We also determined the CPBA and iFSP1 on-rate, off-rate and dissociation constants, which are associated with the binding and unbinding reaction of target and inhibitor. […]

[2] = test system: LOX-IMVI human melanoma cells; experiment: FIN56-induced ferroptosis in LOX-IMVI cells with mock vector or FSP1-Venus; format: cell-based
Protocol: (§1) The following HT1080 fibrosarcoma cell lines were generated using CRISPR/Cas9 technology, as previously described (Doll et al., 2019): HT1080 GPX4-knockout (KO) cells (maintained in the presence of 100 μM α-tocopherol); HT1080 GPX4 knockout cells overexpressing FSP1 (GPX4-KO/FSP1-OE); GPX4-KO cells overexpressing FSP1 and re-expressing GPX4 (GPX4-KO/FSP1-OE/GPX4-OE); HT1080 FSP1-WT or FSP1-KO cells; and HT1080 FSP1-KO cells reconstituted with either FSP1-WT or FSP1-G2A. LOX-IMVI (BRAF V600E heterozygous human melanoma cells) expressing either the Venus mock vector or FSP1-Venus (Doll et al., 2019) were grown in RPMI-1640 supplemented with 10% FCS, 2 mM L-glutamine and Pen/Strep.
LOX-IMVI cells are FSP1-deficient, and were reconstituted with either mock vector (expressing Venus), or with FSP1-Venus to restore FSP1 expression, and treated with either CPBA or iFSP1 as described above (see FIG. 18B).

[3] = test system: HT1080 FSP1-KO cells reconstituted with either FSP1-WT or FSP1-G2A; experiment: FIN56-induced ferroptosis in FSP1-KO cells reconstituted with FSP1-WT or FSP1-G2A; format: cell-based, human; conditions: iFSP1 10 μM, CPBA 100 μM
Protocol: as §1
In order to study the effect of FSP1 membrane targeting on iFSP1 or CPBA-dependent ferroptosis sensitization, HT1080 FSP1-KO cells reconstituted with either FSP1-WT or the membrane binding-incompetent myristoylation mutant FSP1-G2A were incubated with serial FIN56-dilutions in the absence or presence of the DMSO solvent control, iFSP1 (10 μM), or CPBA (100 μM) (see FIG. 18A).

SMILES: O=C(Nc1ccccc1C(=O)O)c1ccc(Oc2ccc(C(=O)Nc3ccccc3C(=O)O)cc2)cc1 [CPBA, 2-[[4-[4-[(2-carboxyphenyl)carbamoyl]phenoxy]benzoyl]amino]-benzoic acid]
- sensitization to FIN56-induced ferroptosis in mouse cells [1]: sensitizes MEFs or Hepa 1-6 cells to FIN56-induced ferroptosis
- affinity for human FSP1 (human FSP1): the affinity of iFSP1 for human FSP1 exceeds the affinity of CPBA for human FSP1
- effect in cells reconstituted with FSP1-Venus ([2]; CPBA- and FIN56-treated cells): FSP1-expression rescues CPBA- and FIN56-treated cells from ferroptosis
- enhancement of the ferroptosis-inducing effect of FIN56 ([2]; FSP1-deficient cells (mock vector)): does not enhance the ferroptosis-inducing effect of FIN56 in FSP1-deficient cells
- ferroptosis sensitization depending on FSP1 membrane targeting [3]: sensitize FSP1-proficient cells to ferroptosis only if FSP1 can be targeted to membranes

SMILES: Cc1ccc(-c2c(C#N)c(N)n3c(nc4ccccc43)c2C#N)cc1 [iFSP1, reference compound]
- concentrations that are non-specifically toxic to cells ([1]; 16 h): > 10 µM
- sensitization to FIN56-induced ferroptosis in mouse cells [1]: does not have an effect on mouse cell lines
- affinity for human FSP1 (human FSP1): the affinity of iFSP1 for human FSP1 exceeds the affinity of CPBA for human FSP1
- effectiveness in LOX-IMVI cells ([2]; as described previously (Doll et al., Nature 2019)): ineffective in LOX-IMVI cells
- ferroptosis sensitization depending on FSP1 membrane targeting [3]: sensitize FSP1-proficient cells to ferroptosis only if FSP1 can be targeted to membranes
